Like-named read-outs stand apart in the source and are kept apart here.
Test system: apomorphine climbing
Test: Climbing Mouse Assay (CMA), antagonism of apomorphine-induced climbing
Assay type: in vivo, CK-1 male mice
Conditions: linear regression, read-out: Climbing Mice Assay ED50
Text: The compounds of the present invention are potentially useful as antipsychotic agents as determined in the Climbing Mouse Assay (CMA).
The Climbing Mouse Assay is described by P. Protais, et al., Psychopharmacol., 50, 1 (1976) and B. Costall, Eur. J. Pharmacol., 50, 39 (1978).
The subject CK-1 male mice (23-27 grams) are group-housed under standard laboratory conditions. The mice are individually placed in wire mesh stick cages (4"×4" by 10") and are allowed one hour for adaptation and exploration of the new environment. The apomorphine is injected subcutaneously at 1.5 mg/kg, a dose causing climbing in all subjects for 30 minutes. Compounds to be tested for antipsychotic activity are injected intraperitoneally (i.p.) 30 minutes prior to the apomorphine challenge at a screening dose of 10 mg/kg.
For evaluation of climbing, 3 readings are taken at 10, 20 and 30 minutes after apomorphine administration according to the following scale: […]
______________________________________
4 paws on bottom (no climbing)
2 paws on the wall (rearing)
4 paws on the wall (full climb)
Mice consistently climbing before the injection of apomorphine are discarded.
With full-developed apomorphine climbing, the animals are hanging onto the cage walls, rather motionless, over longer periods of time. By contrast, climbs due to mere motion stimulation usually last only a few seconds.
The climbing scores are individually totaled (maximum score: 6 per mouse over 3 readings) and the total score of the control group (vehicle intraperitoneally; apomorphine subcutaneously) is set to 100%. ED50 values with 95% confidence limits, calculated by linear regression analyses of some of the compounds of this invention are presented in Table 1.

[1] = ip, 30 minutes prior to apomorphine 1.5 mg/kg s.c.

CC1(C)SCN(CCCCN2CCN(c3n[nH]c4ccccc34)CC2)C1=O [3-(4-(1-[1H-Indazol-3-yl]-4-piperazinyl)-butyl)-5,5-dimethyl-4-thiazolidinone]
ED50 [1]: 1.3 mg/kg

O=C1N(CCCCN2CCN(c3n[nH]c4ccccc34)CC2)CSC12CCCC2 [3-(4-(1-[1H-Indazol-3-yl]-4-piperazinyl)butyl)-1-thia-3-azaspiro[4.4]nonan-4-one]
ED50 [1]: 1.3 mg/kg | ED50 (po, apomorphine 1.5 mg/kg s.c.): 2.7 mg/kg

O=C1N(CCCCN2CCN(c3n[nH]c4ccccc34)CC2)CSC12CCCCC2 [3-(4-(1-[1H-indazol-3-yl]-4-piperazinyl)butyl)-1-thia-3-azaspiro[4.5]decan-4-one]
ED50 [1]: 0.65 mg/kg

O=C1N(CCCCN2CCN(c3n[nH]c4cc(F)ccc34)CC2)CSC12CCCCC2 [3-{4-[1-(6-Fluoro-1H-indazol-3-yl)-4-piperazinyl]butyl}-1-thia-3-azaspiro[4.5]decan-4-one]
ED50 [1]: 0.04 mg/kg | ED50 (po, apomorphine 1.5 mg/kg s.c.): 0.67 mg/kg

CC1SCN(CCCCN2CCN(c3n[nH]c4cc(F)ccc34)CC2)C1=O (centres unmarked) [3-{4-[1-(6-Fluoro-1H-indazol-3-yl)-piperazinyl]butyl}-5-methyl-4-thiazolidinone]
ED50 [1]: 0.11 mg/kg

CN1CCN(C2=Nc3cc(Cl)ccc3Nc3ccccc32)CC1 [Clozapine, reference compound]
ED50 [1]: 8.1 mg/kg
